These results are taken from patent publication US8900593B2 (Indiana University Research and Technology Corporation, priority 2007, dated 2014).

The target of the test is T1, GLP-1 receptor (Homo sapiens, UniProt P43220).
T1 construct: expressed in transfected cells; host or cells: HEK293
Kind of test: Functional assay-cAMP synthesis, luciferase reporter in HEK293 cells co-transfected with GLP-1 receptor. Format: cell-based.

pEC50: −log10 of the molar value. Where two headings read alike, the source gives them in different places.

T1 sequence (P43220 24-463, species assumed): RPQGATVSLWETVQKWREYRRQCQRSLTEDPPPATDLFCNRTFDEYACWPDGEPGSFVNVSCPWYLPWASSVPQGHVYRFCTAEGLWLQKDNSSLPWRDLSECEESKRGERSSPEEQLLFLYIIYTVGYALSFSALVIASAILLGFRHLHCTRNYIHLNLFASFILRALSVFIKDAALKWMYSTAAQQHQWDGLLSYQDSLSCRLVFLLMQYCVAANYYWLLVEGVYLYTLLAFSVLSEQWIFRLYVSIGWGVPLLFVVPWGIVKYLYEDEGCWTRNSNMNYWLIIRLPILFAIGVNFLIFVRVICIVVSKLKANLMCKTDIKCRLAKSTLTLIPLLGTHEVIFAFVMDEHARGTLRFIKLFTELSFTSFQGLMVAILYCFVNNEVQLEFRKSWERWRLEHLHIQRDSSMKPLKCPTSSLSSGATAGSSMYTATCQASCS

Take `CSCC[C@H](NC(=O)[C@H](CC(C)C)NC(=O)[C@H](Cc1c[nH]c2ccccc12)NC(=O)[C@H](CCC(N)=O)NC(=O)[C@@H](NC(=O)[C@H](Cc1ccccc1)NC(=O)[C@H](CC(=O)O)NC(=O)[C@H](CCC(N)=O)NC(=O)[C@H](C)NC(=O)[C@H](CCCNC(=N)N)NC(=O)[C@H](CCCNC(=N)N)NC(=O)[C@H](CO)NC(=O)[C@H](CC(=O)O)NC(=O)[C@H](CC(C)C)NC(=O)[C@H](Cc1ccc(O)cc1)NC(=O)[C@H](CCCCN)NC(=O)[C@H](CO)NC(=O)[C@H](Cc1ccc(O)cc1)NC(=O)[C@H](CC(=O)O)NC(=O)[C@H](CO)NC(=O)[C@@H](NC(=O)[C@H](Cc1ccccc1)NC(=O)[C@@H](NC(=O)CNC(=O)[C@H](CCC(N)=O)NC(=O)[C@H](CO)NC(=O)[C@@H](N)Cc1c[nH]cn1)[C@@H](C)O)[C@@H](C)O)C(C)C)C(=O)N[C@@H](CC(=O)O)C(=O)NCC(=O)NCC(=O)N1CCC[C@H]1C(=O)N[C@@H](CO)C(=O)N[C@@H](CO)C(=O)NCC(=O)N[C@@H](C)C(=O)N1CCC[C@H]1C(=O)N1CCC[C@H]1C(=O)N1CCC[C@H]1C(=O)N[C@@H](CO)C(N)=O` [-MDGG^30 PSSGAPPPS (SEQ ID NO: 525)]: the pEC50 was 9.89.

`CC[C@H](C)[C@H](NC(=O)[C@H](Cc1ccccc1)NC(=O)[C@H](CCC(=O)O)NC(=O)[C@H](CCCCN)NC(=O)[C@H](C)NC(=O)[C@H](C)NC(=O)[C@H](CCC(N)=O)NC(=O)CNC(=O)[C@H](CCC(=O)O)NC(=O)[C@H](CC(C)C)NC(=O)[C@H](Cc1ccc(O)cc1)NC(=O)[C@H](CO)NC(=O)[C@H](CO)NC(=O)[C@@H](NC(=O)[C@H](CC(=O)O)NC(=O)[C@H](CO)NC(=O)[C@@H](NC(=O)[C@H](Cc1ccccc1)NC(=O)[C@@H](NC(=O)CNC(=O)[C@H](CCC(=O)O)NC(=O)[C@H](C)NC(=O)[C@@H](N)Cc1c[nH]cn1)[C@@H](C)O)[C@@H](C)O)C(C)C)C(=O)N[C@@H](C)C(=O)N[C@@H](Cc1c[nH]c2ccccc12)C(=O)N[C@@H](CC(C)C)C(=O)N[C@H](C(=O)N[C@@H](CCCCN)C(=O)NCC(=O)NCC(N)=O)C(C)C` [GLP-1-VKGG^30 (SEQ ID NO: 527), HAEGTFTSDVSSYLEGQAAKEFIAW LVKGGa, reference compound]: the “GLP 1 Receptor Relative Potency (%)” value (Table 11, relative to GLP-1-VKGG30 (SEQ ID NO: 527) = 100) is listed as 100%. For the same compound, the negative-log EC50 (pEC50) (read-out: GLP 1 Receptor EC50) is 10.60.

Take “SEQ ID NO: 22: glucagon analog substituting the native glutamine at position 3 with glutamic acid”: the “selectivity for the GLP-1 receptor” value (versus glucagon receptor) was “approximately a tenfold selectivity”.

Compound `CSCC[C@H](NC(=O)[C@H](CC(C)C)NC(=O)[C@H](Cc1c[nH]c2ccccc12)NC(=O)[C@H](CCC(N)=O)NC(=O)[C@@H](NC(=O)[C@H](Cc1ccccc1)NC(=O)[C@H](CC(=O)O)NC(=O)[C@H](CCCCN)NC(=O)[C@H](C)NC(=O)[C@H](CCCNC(=N)N)NC(=O)[C@H](CCCNC(=N)N)NC(=O)[C@H](CCC(=O)O)NC(=O)[C@H](CC(=O)O)NC(=O)[C@H](CC(C)C)NC(=O)[C@H](Cc1ccc(O)cc1)NC(=O)[C@H](CCCCN)NC(=O)[C@H](CO)NC(=O)[C@H](Cc1ccc(O)cc1)NC(=O)[C@H](CC(=O)O)NC(=O)[C@H](CO)NC(=O)[C@@H](NC(=O)[C@H](Cc1ccccc1)NC(=O)[C@@H](NC(=O)CNC(=O)[C@H](CCC(N)=O)NC(=O)[C@H](CO)NC(=O)[C@@H](N)Cc1c[nH]cn1)[C@@H](C)O)[C@@H](C)O)C(C)C)C(=O)N[C@@H](CC(=O)O)C(=O)NCC(=O)NCC(=O)N1CCC[C@H]1C(=O)N[C@@H](CO)C(=O)N[C@@H](CO)C(=O)NCC(=O)N[C@@H](C)C(=O)N1CCC[C@H]1C(=O)N1CCC[C@H]1C(=O)N1CCC[C@H]1C(=O)N[C@@H](CO)C(N)=O` showed a pEC50 of 10.70.
